From PubChem BioAssay (NCI) come the findings set out here.

Molecules are shown by their SMILES.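 Compound exposure: 48 hours, 5 concentrations, 96-well plates. TGI marks complete inhibition of growth.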 A value given as a limit tells only on which side of the number the result lay.

Test systems include OVCAR-4 ovarian; MDA-N; T-47D breast; SK-MEL-5 melanoma; BT-549 breast; MDA-MB-231 breast; HOP-92 NSCLC; SN12C renal; NCI-H226 lung; LOX IMVI melanoma.
Common to all, as to assay: NCI tumour cell line growth inhibition, 48 h

As to `COc1ccc2nc3c([N+](=O)[O-])ccc4c3c(c2c1)NCCN4C`, the TGI with OVCAR-4 ovarian was 3.57 µM; in the test with MDA-N it was 2.21 µM; with T-47D breast, 7.73 µM; in the test with SK-MEL-5 melanoma it was 2.86 µM; in the test with BT-549 breast it was 11.4 µM; with MDA-MB-231 breast, 3.01 µM. The TGI in the test with HOP-92 NSCLC is 6.44 µM; with SN12C renal, 9.29 µM; in the test with NCI-H226 lung it was 3.59 µM; in the test on LOX IMVI melanoma, 4.71 µM.
`O=c1[nH]cnc2c1ncn2[C@H]1CO[C@@H](CO)[C@@H]1O`: the TGI in the test with OVCAR-4 ovarian, in the test with MDA-N, in the test on T-47D breast, in the test with SK-MEL-5 melanoma, in the test with BT-549 breast and in the test on MDA-MB-231 breast was over 100 µM each time. Further, the TGI in the test with HOP-92 NSCLC, in the test on SN12C renal, in the test on NCI-H226 lung and in the test with LOX IMVI melanoma was over 100 µM each time.
Consider `CC[C@H]1C=CCC[C@@]2(C[C@@H]3CC[C@@H]4[C@H](C(=O)OCCCCCCCCCCCCCCCC(=O)N(CCCN)C[C@@H](O)CCN)[C@]5(CCC[C@@H](C)O5)NC(=[N+]34)N2)O1`, for which the TGI is over 5.94 µM in the test on OVCAR-4 ovarian; 1.14 µM in the test with MDA-N; 5.56 µM with T-47D breast; 0.173 µM in the test on SK-MEL-5 melanoma; 2.61 µM with BT-549 breast; 5.97 µM in the test on MDA-MB-231 breast. The TGI was 1.01 µM in the test on HOP-92 NSCLC, over 5.62 µM with SN12C renal, 3.66 µM with NCI-H226 lung and 0.721 µM with LOX IMVI melanoma.
For `COc1cccc(/C=C/C2=NN(c3cccc(S(=O)(=O)O)c3)C3(C2)SCC(=O)N3c2nc3ccccc3s2)c1` (stereo not given), the TGI with OVCAR-4 ovarian was over 100 µM; with MDA-N, over 100 µM; in the test with T-47D breast, 52.8 µM; in the test with SK-MEL-5 melanoma it was over 100 µM; with BT-549 breast, over 100 µM; in the test with MDA-MB-231 breast, over 100 µM. Also, the TGI in the test with HOP-92 NSCLC was over 100 µM; in the test with SN12C renal it was over 100 µM; in the test on NCI-H226 lung, over 100 µM; in the test on LOX IMVI melanoma it was 40.5 µM.
With `CC(=O)Oc1ccc2c(c1)CC[C@@H]1C2[C@@H](O[N+](=O)[O-])C[C@@]2(C)C1CC[C@@H]2O` (stereo not given in full), the TGI was over 100 µM in the test with OVCAR-4 ovarian; 27.9 µM in the test on MDA-N; over 100 µM in the test on T-47D breast; over 100 µM with SK-MEL-5 melanoma; over 100 µM in the test with BT-549 breast; over 100 µM in the test with MDA-MB-231 breast. Further, the TGI in the test with HOP-92 NSCLC is over 100 µM; in the test on SN12C renal, over 100 µM; with NCI-H226 lung it was over 100 µM; in the test with LOX IMVI melanoma, over 81.2 µM.
In the case of `COc1cc2c(cc1OCCCC(=O)Nc1cc(C(=O)Nc3cc(C(=O)NCCCN(C)C)n(C)n3)n(C)n1)N=CC1CCCN1C2=O` (stereo not given), the TGI in the test with OVCAR-4 ovarian was found to be 26.5 µM; in the test with MDA-N, 31.6 µM; with T-47D breast it was 53 µM; with SK-MEL-5 melanoma it was 30.1 µM; with BT-549 breast, 26.5 µM; in the test on MDA-MB-231 breast it was 39.5 µM. In addition, the TGI is 33.2 µM in the test on HOP-92 NSCLC, 30.1 µM with SN12C renal, over 100 µM in the test on NCI-H226 lung and 57 µM in the test on LOX IMVI melanoma.
For the compound `CO[P@]1(=O)O[C@@H](c2ccccc2)[C@H](O)[C@]1(O)c1ccccc1`, the TGI in the test with OVCAR-4 ovarian, in the test on MDA-N, in the test on T-47D breast, with SK-MEL-5 melanoma, in the test on BT-549 breast and with MDA-MB-231 breast was over 100 µM in each case. The TGI in the test on HOP-92 NSCLC, in the test on SN12C renal, with NCI-H226 lung and in the test on LOX IMVI melanoma was over 100 µM each time.
As to `NNC(=O)c1ccccc1NC(=O)/C(=C/c1ccccc1)NC(=O)c1ccccc1`, the TGI with OVCAR-4 ovarian, in the test with MDA-N, in the test on T-47D breast, in the test with SK-MEL-5 melanoma, in the test on BT-549 breast and with MDA-MB-231 breast was over 100 µM in each case. Also, the TGI in the test on HOP-92 NSCLC, with SN12C renal, with NCI-H226 lung and with LOX IMVI melanoma was over 100 µM in each case.
Regarding `CN(C)Cc1cc(C(=O)O)cc(CN(C)C)c1O`, the TGI with OVCAR-4 ovarian, in the test on MDA-N, with T-47D breast, in the test on SK-MEL-5 melanoma, in the test with BT-549 breast and in the test on MDA-MB-231 breast was over 100 µM each time. Moreover, the TGI in the test with HOP-92 NSCLC, with SN12C renal, in the test with NCI-H226 lung and in the test with LOX IMVI melanoma was over 100 µM throughout.
In the case of `CCCCCc1c(CCCC)c(=O)[nH]c2cc(CNCC(OC)OC)ccc12`, the TGI in the test on OVCAR-4 ovarian was 30.9 µM; in the test with MDA-N, 24 µM; with T-47D breast, 31.8 µM; in the test with SK-MEL-5 melanoma, 21 µM; in the test on BT-549 breast, 28 µM; in the test on MDA-MB-231 breast, 29.3 µM. The TGI in the test on HOP-92 NSCLC was determined as 16.5 µM; in the test on SN12C renal, 28.1 µM; in the test on NCI-H226 lung, 40.6 µM; in the test on LOX IMVI melanoma, 18.8 µM.
In the case of `c1ccc2c(c1)SC1Sc3ccccc3[S+]21` (stereo not given), the TGI in the test on OVCAR-4 ovarian was over 100 µM; with MDA-N, 53.6 µM; in the test with T-47D breast, over 100 µM; in the test on SK-MEL-5 melanoma, 22.7 µM; in the test with BT-549 breast, 37.2 µM; in the test with MDA-MB-231 breast it was 80.3 µM. Also, the TGI amounted to 69.9 µM with HOP-92 NSCLC, 33.6 µM in the test with SN12C renal, 96.9 µM with NCI-H226 lung and 45.6 µM in the test on LOX IMVI melanoma.
Regarding `Nc1cc(CO)cc(Nc2c3ccccc3nc3occc23)c1`, the TGI is 54.5 µM in the test with OVCAR-4 ovarian; over 100 µM in the test with MDA-N; 80.3 µM in the test with T-47D breast; 58.9 µM with SK-MEL-5 melanoma; 81.6 µM in the test on BT-549 breast; over 100 µM in the test on MDA-MB-231 breast. Besides, the TGI in the test on HOP-92 NSCLC, in the test with SN12C renal, with NCI-H226 lung and in the test on LOX IMVI melanoma was over 100 µM each time.
Turning to `CC(=O)Nc1ccc(Nc2nc(=O)[nH]c(=O)[nH]2)cc1`, the TGI in the test on OVCAR-4 ovarian, in the test on MDA-N, with T-47D breast, in the test with SK-MEL-5 melanoma, with BT-549 breast and with MDA-MB-231 breast was over 100 µM in each case. The TGI in the test with HOP-92 NSCLC, in the test on SN12C renal, with NCI-H226 lung and with LOX IMVI melanoma was over 100 µM throughout.
For the compound `CCOC(=O)/C(=C\c1ccc(CO)o1)P(=O)(OCC)OCC`, the TGI in the test with OVCAR-4 ovarian is 35.9 µM; in the test on MDA-N, 47.8 µM; in the test on T-47D breast it was over 100 µM; in the test with SK-MEL-5 melanoma it was over 100 µM; in the test with BT-549 breast it was 45 µM; in the test on MDA-MB-231 breast it was 93.5 µM. The TGI in the test on HOP-92 NSCLC is 53.7 µM; in the test on SN12C renal it was 96.2 µM; in the test with NCI-H226 lung it was over 100 µM; with LOX IMVI melanoma, 41.3 µM.
With `CC1(C)N=C(N)N=C(N)N1c1cccc(CSc2ccccc2)c1`, the TGI in the test on OVCAR-4 ovarian is over 100 µM; in the test with MDA-N it was over 100 µM; with T-47D breast it was over 100 µM; in the test with SK-MEL-5 melanoma, 13.5 µM; with BT-549 breast, over 100 µM; with MDA-MB-231 breast, over 100 µM. Further, the TGI in the test on HOP-92 NSCLC, in the test on SN12C renal, in the test on NCI-H226 lung and with LOX IMVI melanoma was over 100 µM throughout.
On to `COC1CCC(OC2CC(C3(C)CCC4(CC(O)C(C)C(C(C)/C=C(\C)C(=O)C(C)CC(C)C(=O)O)O4)O3)OC3(OC(C4OC(O)(CO)C(C)CC4C)CC3C)C2C)OC1C` (stereo not given), for which the TGI in the test with OVCAR-4 ovarian is 10.3 µM; in the test on MDA-N it was 0.549 µM; in the test on T-47D breast, 1.22 µM; in the test on SK-MEL-5 melanoma, 0.464 µM; in the test with BT-549 breast it was 1.26 µM; in the test with MDA-MB-231 breast it was 0.517 µM. Moreover, the TGI with HOP-92 NSCLC is 2.77 µM; in the test on SN12C renal, 1.55 µM; in the test on NCI-H226 lung, 3.13 µM; with LOX IMVI melanoma, 0.941 µM.
Turning to `Brc1ccc2c(c1)C1=C(CO2)Cc2ccccc2O1`, the TGI with OVCAR-4 ovarian is 33.6 µM; in the test on MDA-N it was 27 µM; in the test on T-47D breast, 33.2 µM; in the test with SK-MEL-5 melanoma, 28.2 µM; in the test on BT-549 breast it was 33 µM; in the test with MDA-MB-231 breast, 30.3 µM. For the same compound, the TGI with HOP-92 NSCLC amounted to 31.5 µM; in the test with SN12C renal, 33 µM; in the test with NCI-H226 lung, 40.1 µM; in the test on LOX IMVI melanoma it was 31.1 µM.
Consider `CSc1n[n+](C)cc(N)c1N`, for which the TGI in the test on OVCAR-4 ovarian, in the test with MDA-N, with T-47D breast, in the test with SK-MEL-5 melanoma, in the test on BT-549 breast and in the test with MDA-MB-231 breast was over 100 µM each time. For the same compound, the TGI with HOP-92 NSCLC was 98 µM; in the test on SN12C renal, over 100 µM; in the test with NCI-H226 lung, over 100 µM; in the test on LOX IMVI melanoma, over 100 µM.
As to `CN(C)CCOc1ccc(-c2c(Oc3ccc(Cl)cc3)c(=O)oc3ccccc23)cc1`, the TGI in the test on OVCAR-4 ovarian is 28.1 µM; with MDA-N it was 13.5 µM; in the test with T-47D breast it was over 100 µM; with SK-MEL-5 melanoma it was 4.55 µM; in the test on BT-549 breast, 28.3 µM; with MDA-MB-231 breast it was 22.4 µM. The TGI in the test with HOP-92 NSCLC was over 39.4 µM; in the test with SN12C renal, over 43.6 µM; in the test with NCI-H226 lung, over 53.9 µM; in the test with LOX IMVI melanoma, over 35.7 µM.
As for `COc1ccc(N=C/C=C/Nc2ccc(OC)cc2)cc1`, the TGI with OVCAR-4 ovarian is 9.99 µM; with MDA-N it was 14.4 µM; in the test on T-47D breast, 35.3 µM; with SK-MEL-5 melanoma it was 19.5 µM; with BT-549 breast, 9.34 µM; with MDA-MB-231 breast, 6.02 µM. Besides, the TGI amounted to 29.6 µM in the test on HOP-92 NSCLC, 8.86 µM in the test with SN12C renal, 32.6 µM in the test with NCI-H226 lung and 5.45 µM in the test with LOX IMVI melanoma.
Consider `O=C(CCCC(=O)N1CC(CCl)c2ccc([N+](=O)[O-])cc21)N1CC(CCl)c2ccc([N+](=O)[O-])cc21` (stereo not given), for which the TGI in the test with OVCAR-4 ovarian, in the test with MDA-N, in the test on T-47D breast, in the test with SK-MEL-5 melanoma, in the test on BT-549 breast and in the test on MDA-MB-231 breast was over 100 µM throughout. The TGI with HOP-92 NSCLC, with SN12C renal, in the test with NCI-H226 lung and with LOX IMVI melanoma was over 100 µM in each case.
With `c1ccc(N=NNNc2ccc(-c3nc4ccccc4[nH]3)cc2)cc1`, the TGI with OVCAR-4 ovarian was over 100 µM; with MDA-N, over 100 µM; in the test with T-47D breast, 39.1 µM; in the test with SK-MEL-5 melanoma it was over 100 µM; in the test with BT-549 breast it was 76.8 µM; with MDA-MB-231 breast it was over 100 µM. Also, the TGI in the test with HOP-92 NSCLC is over 100 µM; with SN12C renal, 98.1 µM; in the test with NCI-H226 lung it was over 100 µM; in the test on LOX IMVI melanoma, over 100 µM.
